# Reference: US5830996A, “Cyclic peptide antitumor agent from an ascidian” (University of Utah Research Foundation, priority 1996, dated 1998)
# Tests used:
# SK-MEL-5 cells = conditions: MTT assay
# Protocol: (§1) Vitilevuamide prepared according to the procedure of Example 1 or Example 2 was tested against a panel of human tumor cell lines: (a) a colon cancer cell line, HCT 116 (obtained from ATCC), M. Brattain, 41 Cancer Res. 1751 (1986); (b) an adenocarcinoma cell line, A549, D. J. Giard, 51 J. Nat'l Cancer Inst. 1417 (1973); (c) a malignant melanoma cell line, SK-MEL-5, H. F Oteggen, 41 J. Nat'l Cancer Inst. 827 (1968); and (d) a kidney carcinoma cell line, A498, S. Aaronson, 51 J. Nat'l Cancer Inst. 1417 (1973). Cells were cultured according to the procedure of M. C. Alley et al., 48 Cancer Res. 589 (1988), hereby incorporated by reference.
# (§2) Screening was performed in a 96-well microtiter plate by the standard 3-[4,5-dimethylthiazol-2-yl]-[…] bromide; thiazolyl blue (MTT) cell inhibition assay adopted for anticancer drug screening at NIH. J. Carmichael et al., 47 Cancer Res. 936 (1987), hereby incorporated by reference. Positive controls were run simultaneously.
# A498 cells = conditions: MTT assay
# Protocol: as §1, §2
# A549 cells = conditions: MTT assay
# Protocol: as §1, §2
# HCT 116 cells = conditions: MTT assay
# Protocol: as §1, §2
# P388 tumor cells = assay: In vivo P388 tumor life span test in CDF1 mice; conditions: days 1, 5, 9, CDF1 mice with P388
# Protocol: Vitilevuamide was also screened for in vivo activity by injecting CDF1 mice intraperitoneally on day 0 with 1×10^6 P388 tumor cells. Five animals were randomly assigned to a group. On days 1, 5, and 9 after tumor implantation, these mice were treated intraperitoneally with either a placebo or the drug. Animals were checked twice daily, and the day of death of each mouse was recorded. A positive drug response is defined as a greater than 25% increase in the mean life span (% ILS) relative to the placebo control.
# C6 rat glioma cells = assay: Tubulin inhibition assay (db-cAMP rounding, MTT readout); type: cell-based; conditions: 4 h treatment then 1 mM db-cAMP, colchicine 25 μg/mL positive control
# Protocol: C6 rat glioma cells (ATCC CCL107) were seeded into the wells of a microtiter plate and then incubated for 1 day. The cells were then treated with a range of vitilevuamide concentrations, normally 5 orders of magnitude, and incubated for 4 additional hours. The cells were then treated for 1 hour with 1 mM dibuteryl-cAMP (db-cAMP), which causes the C6 cells to assume a spherical morphology ("rounding") within 60 minutes due to polymerization of tubulin. Cells that are exposed to tubulin-active compounds, on the other hand, display a different morphological change--flattening and adherence to the substrate. All of the wells were then jet aspirated, and the wells were resupplied with fresh medium containing MTT. The glioma cells metabolize MTT to a dark formazan dye. P. R. Twentyman & M. Luscombe, 56 Br. J. Cancer 279 (1987); F. Denizot & R. Lang, 89 J. Immunol. Methods 271 (1986). Following 4 hours of incubation, absorbance was measured at 450 nm. Colchicine (25 μg/mL) was used as the positive control.
smiles,measurement,setting,value
C=C1NC(=O)[C@H]([C@@H](C)CC)NC(=O)C2CSCC(NC(=O)CCC(=O)O)C(=O)N[C@H](Cc3ccccc3)C(=O)N[C@H](C)C(=O)NC(CC(C)CC)C(=O)N[C@@H](C(=O)N[C@H](Cc3ccccc3)C(=O)N3CCC[C@H]3C(=O)N2)[C@@H](C)OC(=O)[C@H](CO)NC(=O)C(C(O)COC)N(C)C(=O)[C@@H](C(C)C)NC(=O)C(CC(C)CC)NC1=O (stereo partly drawn) [vitilevuamide],50% inhibitory concentration (IC50),SK-MEL-5 cells,0.5 µg/mL
same,50% inhibitory concentration (IC50),A498 cells,5 µg/mL
same,50% inhibitory concentration (IC50),A549 cells,0.2 µg/mL
same,50% inhibitory concentration (IC50),HCT 116 cells,0.01 µg/mL
same,% ILS (increase in mean life span relative to placebo),P388 tumor cells; 0.006 mg/kg/dose i.p.,8%
same,% ILS (increase in mean life span relative to placebo),P388 tumor cells; 0.012 mg/kg/dose i.p.,20%
same,% ILS (increase in mean life span relative to placebo),P388 tumor cells; 0.03 mg/kg/dose i.p.,70%
same,% ILS (increase in mean life span relative to placebo),P388 tumor cells; 0.06 mg/kg/dose i.p.,-13%
same,toxicity remark at dose,P388 tumor cells; 0.06 mg/kg/dose i.p.,toxic
same,% ILS (increase in mean life span relative to placebo),P388 tumor cells; 0.13 mg/kg/dose i.p.,-45%
same,toxicity remark at dose,P388 tumor cells; 0.13 mg/kg/dose i.p.,toxic
same,concentration showing the same effect as colchicine,C6 rat glioma cells,4 µg/mL
